Reference: ChEMBL document CHEMBL1201862, “PubChem BioAssay data set” (2004)
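Five concentrations, 48 hours, 96-well plates. GI50 is the concentration that inhibits growth by half.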 The source made the active and inactive calls. Cut-off read from the data, not from the text of the source: active = GI50 up to about 1.1 µM and inactive = higher.

How the values were obtained:
Assay in all cases: NCI tumour cell line growth inhibition, 48 h
[1] = system: SNB-75
[2] = system: OVCAR-5
[3] = system: A549
[4] = system: HOP-62
[5] = system: UACC-62
[6] = system: KM12
[7] = system: HT-29
[8] = system: SK-MEL-2
[9] = system: LXFL 529
[10] = system: MOLT-4
[11] = system: HOP-92
[12] = system: NCI-H226
[13] = system: LOX IMVI
[14] = system: CAKI-1
[15] = system: OVCAR-4
[16] = system: NCI-H460
[17] = system: DMS-273
[18] = system: Hs-578T
[19] = system: NCI/ADR-RES
[20] = system: MDA-MB-435

Measured: GI50

CC/C=C\C/C=C\C/C=C\CCCCCCCC(=O)OCC
inactive: [1] > 100 µM | [2] > 100 µM | [3] > 100 µM | [4] > 100 µM | [5] > 100 µM | [6] > 100 µM | [7] > 100 µM | [8] > 100 µM | [9] > 100 µM | [10] 87.1 µM | [11] > 100 µM | [12] > 100 µM | [13] 42.6 µM | [14] > 100 µM | [15] > 100 µM

O=C1c2ccccc2-c2cccc3ccc(Cc4ccc5ccccc5c4)c1c23
inactive: [16] > 100 µM | [17] 88.3 µM | [1] 26.4 µM | [2] > 100 µM | [3] > 100 µM | [4] > 100 µM | [5] > 100 µM | [6] > 100 µM | [7] > 100 µM | [8] > 100 µM | [10] > 100 µM | [11] 49.4 µM | [15] > 100 µM

CC(=O)Nc1ccc(C(=O)N2N=C(C)/C(=C/c3cccc(O)c3)C2=O)cc1
inactive: [16] > 100 µM | [17] > 100 µM | [1] > 100 µM | [2] > 100 µM | [3] > 100 µM | [4] > 100 µM | [7] > 100 µM | [8] > 100 µM | [10] > 100 µM | [12] > 100 µM | [13] > 100 µM | [14] > 100 µM | [15] > 100 µM

CN1CCC2(CC1)SC[C@H]1C(=O)N(c3ccc(Cl)cc3)C(=O)N12
inactive: [16] > 100 µM | [1] > 100 µM | [2] > 100 µM | [3] > 100 µM | [4] > 100 µM | [5] > 100 µM | [6] > 100 µM | [7] > 100 µM | [8] > 100 µM | [10] > 100 µM | [18] > 100 µM | [11] > 100 µM | [19] > 100 µM | [12] > 100 µM | [13] > 100 µM | [14] > 100 µM | [15] > 100 µM | [20] 43.7 µM

Cc1ccc(N2C(=O)N(c3ccc(C)cc3)C3(SC=NN3C)C2=O)cc1 (stereo not given)
inactive: [16] > 100 µM | [1] > 100 µM | [3] 50.5 µM | [4] > 100 µM | [5] 74 µM | [6] 47.6 µM | [7] 32.4 µM | [9] 64.1 µM | [10] 63.2 µM | [11] > 100 µM | [12] 72.8 µM | [13] 32.3 µM | [14] 83.2 µM | [15] 95.5 µM

N/C(=N\O)N/N=C/c1ccc2c(c1)OCCO2
inactive: [16] 7.55 µM | [17] 16.6 µM | [1] 29.9 µM | [2] 4.72 µM | [3] 4.7 µM | [4] 19.8 µM | [6] 5.04 µM | [7] 8.53 µM | [8] 9.08 µM | [10] 19.1 µM | [11] 27 µM | [19] 11.1 µM | [12] 4.08 µM | [13] 8.09 µM | [14] 16.4 µM | [15] 8.91 µM

CCOC(=O)c1cc(-c2ccc(OC)c(OC)c2)cn1C
inactive: [16] > 10 µM | [1] 4.43 µM | [2] > 10 µM | [3] > 10 µM | [4] > 10 µM | [5] > 10 µM | [6] > 10 µM | [7] > 10 µM | [8] > 10 µM | [10] > 10 µM | [18] 7.03 µM | [11] > 10 µM | [19] > 10 µM | [12] > 10 µM | [13] > 10 µM | [14] > 10 µM | [15] > 10 µM | [20] > 10 µM

O=C1Cc2ccccc2N1c1c(Cl)cccc1Cl
inactive: [16] 97.5 µM | [1] 27.7 µM | [2] > 100 µM | [3] 50.2 µM | [4] > 100 µM | [5] 40.2 µM | [6] 31.8 µM | [7] 34.3 µM | [8] 28.5 µM | [9] 87.7 µM | [10] 22.6 µM | [11] 50.2 µM | [12] 37.9 µM | [13] 49.5 µM | [14] 61.1 µM | [15] 48 µM

COC1(OC)C2(Cl)C(Cl)=C(Cl)C1(Cl)C1COCC12 (stereo not given)
inactive: [16] > 100 µM | [1] > 100 µM | [2] > 100 µM | [3] > 100 µM | [4] > 100 µM | [5] > 100 µM | [6] > 100 µM | [7] > 100 µM | [8] > 100 µM | [10] > 100 µM | [18] > 100 µM | [11] > 81.3 µM | [19] > 100 µM | [12] > 100 µM | [13] > 100 µM | [14] > 100 µM | [15] > 100 µM | [20] 30.8 µM

N=C(N)SCCN1CCCCC1
inactive: [16] 32.7 µM | [1] 37.4 µM | [2] 86.1 µM | [3] 56 µM | [4] 46.5 µM | [5] 23.4 µM | [6] 40.6 µM | [7] 29.9 µM | [8] 2.98 µM | [10] 20.6 µM | [18] 11.7 µM | [11] 27.9 µM | [19] 29.2 µM | [12] 21.4 µM | [13] 20.2 µM | [14] 26.7 µM | [15] 31.6 µM | [20] 19.4 µM

O=C1NCCCC12CCCNC2=O
inactive: [16] > 100 µM | [17] > 100 µM | [3] > 100 µM | [4] > 100 µM | [6] > 100 µM | [7] > 100 µM | [9] > 100 µM | [10] > 100 µM | [12] > 100 µM | [13] > 100 µM

CCOc1cccc2[s+]snc12
inactive: [16] > 100 µM | [17] > 100 µM | [1] 25.6 µM | [2] > 100 µM | [3] > 100 µM | [4] > 100 µM | [5] 40.3 µM | [6] > 100 µM | [7] > 100 µM | [8] > 100 µM | [9] 77.4 µM | [10] 78.2 µM | [12] > 100 µM | [13] 50.1 µM | [14] > 100 µM | [15] 58.5 µM

CC(C)CCCC(C)[C@H]1CC[C@H]2[C@@H]3CC[C@H]4C[C@@H](CCC=C(c5cc(Cl)c(O)c(C(=O)O)c5)c5cc(Cl)c(O)c(C(=O)O)c5)CC[C@]4(C)[C@H]3CC[C@]12C (stereo not given in full)
inactive: [16] 25.4 µM | [1] > 50 µM | [2] > 50 µM | [3] > 50 µM | [4] > 50 µM | [5] > 50 µM | [6] > 50 µM | [7] > 50 µM | [8] > 50 µM | [10] > 50 µM | [18] > 50 µM | [11] > 50 µM | [19] > 50 µM | [12] > 50 µM | [13] > 50 µM | [14] > 50 µM | [15] > 50 µM | [20] > 50 µM

CC(C)(C)c1cc(Cc2ccc(S(C)(=O)=O)cc2)c(O)c(C(C)(C)C)c1
inactive: [16] 16.8 µM | [17] 14.3 µM | [1] 14.8 µM | [2] 14.4 µM | [3] 11.7 µM | [4] 16.2 µM | [5] 13.1 µM | [6] 16.4 µM | [7] 14.7 µM | [8] 16.7 µM | [9] 15.5 µM | [10] 12.3 µM | [13] 14.6 µM | [14] 16.2 µM | [15] 14.4 µM

COC(=O)C1=CC2OC1(C)CCC2=O (stereo not given)
inactive: [16] > 100 µM | [17] > 100 µM | [1] > 100 µM | [2] > 100 µM | [3] > 100 µM | [4] > 100 µM | [5] > 10 µM | [6] > 100 µM | [7] > 100 µM | [8] > 100 µM | [9] > 100 µM | [10] 45.9 µM | [12] > 100 µM | [13] > 100 µM | [14] 63 µM | [15] > 100 µM

O=c1c2cc([N+](=O)[O-])ccc2nc2n1CCCCC2
inactive: [16] > 100 µM | [1] 57.1 µM | [2] > 100 µM | [3] > 100 µM | [4] > 100 µM | [5] > 100 µM | [6] > 100 µM | [7] > 100 µM | [8] > 100 µM | [10] > 100 µM | [18] 43.3 µM | [11] > 100 µM | [19] > 100 µM | [12] > 100 µM | [13] > 100 µM | [14] 79.6 µM | [15] > 100 µM | [20] > 100 µM

NS(=O)(=O)c1ccc(NNc2c3ccccc3nc3c(C(=O)Nc4ccc(S(N)(=O)=O)cc4)cccc23)cc1
inactive: [16] 24.2 µM | [1] 14.5 µM | [2] 62.7 µM | [3] > 100 µM | [4] 57.3 µM | [5] 22.2 µM | [6] 27.9 µM | [7] 26.9 µM | [8] 13 µM | [10] 7.85 µM | [18] 19.1 µM | [11] 5.07 µM | [19] > 100 µM | [12] 37.6 µM | [13] 11.5 µM | [14] > 100 µM | [15] 19.6 µM | [20] 49.3 µM
